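Following 48 hours of exposure in 96-well plates, responses at five concentrations were used to interpolate endpoints linearly. GI50: concentration for 50% inhibition of growth. TGI: total growth inhibition.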
Legend:
Test in all cases: NCI anticancer screen, dose series, 48 h
SNB-75 CNS = test system: SNB-75 CNS
SF-539 CNS = test system: SF-539 CNS
EKVX NSCLC = test system: EKVX NSCLC
NCI-H460 lung = test system: NCI-H460 lung
SF-295 CNS = test system: SF-295 CNS
CAKI-1 renal = test system: CAKI-1 renal
HT29 colon = test system: HT29 colon
MOLT-4 leukemia = test system: MOLT-4 leukemia
SW-620 colon = test system: SW-620 colon
OVCAR-5 ovarian = test system: OVCAR-5 ovarian

SMILES	TGI (SNB-75 CNS)	TGI (SF-539 CNS)	TGI (EKVX NSCLC)	TGI (NCI-H460 lung)	TGI (SF-295 CNS)	TGI (CAKI-1 renal)	TGI (HT29 colon)	TGI (MOLT-4 leukemia)	TGI (SW-620 colon)	TGI (OVCAR-5 ovarian)	GI50 (SNB-75 CNS)	GI50 (OVCAR-5 ovarian)	GI50 (EKVX NSCLC)	GI50 (NCI-H460 lung)	GI50 (SF-295 CNS)	GI50 (CAKI-1 renal)	GI50 (HT29 colon)	GI50 (MOLT-4 leukemia)	GI50 (SW-620 colon)	GI50 (SF-539 CNS)
NC(N)=NS(=O)(=O)c1ccc(NC(=O)c2cccn3c(=O)c4ccccc4nc23)cc1	> 100 µM	> 100 µM	> 100 µM	> 100 µM	> 100 µM	> 100 µM	> 100 µM	85.9 µM	> 100 µM											
CCC1CCC2C3CC=C4CC(OC(C)=O)C(N)CC4(C)C3CCC12C (stereo not given)	5.51 µM	3.5 µM	13.8 µM	3.53 µM	8.03 µM	22.9 µM	6.32 µM	8.01 µM	11.2 µM	14.1 µM										
[O-]c1ccccc1[C-]=Nc1ccccc1O.[O-]c1ccccc1[C-]=Nc1ccccc1O.[O]=[U]=[O]	64.5 µM		62.4 µM	41.2 µM	43.5 µM	37.3 µM	95.3 µM	65 µM	74.5 µM	> 100 µM	25.1 µM	21 µM	24 µM	14.5 µM	16.4 µM	12.5 µM	16 µM	2.95 µM	12.2 µM	
CN1CCN2c3ccccc3CC(C#N)(C#N)C2C1 (stereo not given)	> 100 µM	> 100 µM	> 100 µM	> 100 µM	> 100 µM	> 100 µM	> 100 µM	> 100 µM	> 100 µM	> 100 µM										
CC/C=C\C[C@H](O)C/C=C1/C(=O)C=C[C@@H]1C/C=C\CCCC(=O)OCCS(=O)(=O)c1ccccc1	88.8 µM	16.9 µM	30.5 µM	6.35 µM	14.1 µM	13.7 µM	8.54 µM	13.4 µM	14.9 µM	29.5 µM	17.2 µM	12.4 µM	12.2 µM	2.53 µM	3.74 µM	3.86 µM	3.29 µM	2.83 µM	4.07 µM	4.68 µM
CC1(OCc2ccccc2)C(=O)N2C1N(C(=O)OCc1ccccc1)CC2(C)C (stereo not given)	> 100 µM	> 100 µM	> 100 µM	> 100 µM	> 100 µM		> 100 µM	77.4 µM	> 100 µM											
Nc1ncnc2c1ncn2C1OC(CO)CC1O (stereo not given)	> 100 µM	> 100 µM	> 100 µM		> 100 µM	> 100 µM		> 100 µM	> 100 µM	> 100 µM										
O=C1C2c3[nH]c4ccccc4c3C3CCC(c4ccccc4)CC3C2C(=O)N1c1ccccc1 (stereo not given)	55.9 µM	> 100 µM	> 100 µM	> 100 µM	> 100 µM		> 100 µM	> 100 µM	> 100 µM	> 100 µM										
N#CC1=C(c2ccccc2)NN(Cc2ccccc2)C(c2ccc(Cl)cc2)CC1=O (stereo not given)	46 µM			52.9 µM	> 100 µM	76.7 µM	38.7 µM	> 100 µM	54.8 µM	> 100 µM										
CN(C)c1ccc(/C=N/NC(=O)CSc2nc3sc4c(c3c(=O)n2-c2ccccc2)CCCCC4)cc1	14.6 µM	25.5 µM	> 100 µM	4.86 µM	20.7 µM	> 100 µM	> 100 µM	> 100 µM	> 100 µM	> 100 µM	2.68 µM	6.55 µM	7.08 µM	2.21 µM	3.39 µM	5.07 µM	4.31 µM	> 100 µM	3.56 µM	4.52 µM
CC(=O)CC(=O)ON(C)C(C)=O	> 100 µM	> 100 µM		> 100 µM	> 100 µM	> 100 µM	> 100 µM	> 100 µM	> 100 µM	> 100 µM										
CCOC(=O)NC(=O)c1cn(CC(=O)NCC(=O)NCC(=O)N2CCN(CCn3c(C)nc(C(N)=O)c3N)CC2)c(=O)[nH]c1=O	> 100 µM	> 100 µM		> 100 µM	> 100 µM	> 100 µM	> 100 µM	> 100 µM	> 100 µM											
Clc1cc2nc[nH]c2cc1Cl	83.9 µM	> 100 µM	> 100 µM	> 100 µM	> 100 µM	> 100 µM	> 100 µM	> 100 µM	> 100 µM	> 100 µM										
COc1ccc(-c2cc(=O)c3c(OC)c(O)c(OC)cc3o2)cc1	> 100 µM	> 100 µM	> 100 µM	> 100 µM	> 100 µM	> 100 µM	> 100 µM	> 100 µM	> 100 µM	> 100 µM										
COc1ccc(C(=C(C#N)C#N)c2ccc(OC)cc2)cc1		> 100 µM	> 100 µM	> 100 µM	> 100 µM	> 100 µM	> 100 µM	> 100 µM	> 100 µM	> 100 µM										
CC(C)(C)n1nc(C2CC2)cc1NC(=O)Nc1ccc(Cl)cc1	> 100 µM	> 100 µM	> 100 µM	> 100 µM	> 100 µM	> 100 µM	> 100 µM	> 100 µM	> 100 µM	> 100 µM										
NNC(=O)C(O)C(O)C(O)CO (stereo not given)	> 100 µM		> 100 µM	> 100 µM	> 100 µM	> 100 µM	> 100 µM		> 100 µM	> 100 µM										
OCC(O)C(O)C(O)c1nn[nH]n1 (stereo not given)	> 100 µM	> 100 µM	> 100 µM	> 100 µM	> 100 µM	> 100 µM	> 100 µM	> 100 µM	> 100 µM	> 100 µM										
CC12CCC(=O)N1c1cc([N+](=O)[O-])ccc1N2 (stereo not given)	> 100 µM	> 100 µM	> 100 µM		> 100 µM		> 100 µM	> 100 µM	> 100 µM											
Clc1cc(Cl)cc(C2SCc3nc4ccccc4n32)c1 (stereo not given)	> 100 µM	23.9 µM	70.8 µM	29.3 µM	29.3 µM	44.2 µM	25.2 µM	57.2 µM	33.6 µM	71.4 µM										
CCCCCCCCCCCCCCCCCc1cc(Cl)nc(Cl)n1	> 100 µM	> 100 µM	> 100 µM	> 100 µM	> 100 µM		> 100 µM	> 100 µM	> 100 µM	> 100 µM										

Reference: PubChem BioAssay (NCI)
